This passage reports Ki results from patent publication US11014911B2, “CDK2 inhibitors” (Pfizer Inc., priority 2019, dated 2021).

For assay [1], the target named is CDK2/Cyclin E1 full length (Homo sapiens (Human), UniProt P24941). Description: CDK2/Cyclin E1 full length mobility shift assay. Format: biochemical.
Assay [2] concerns the target T1, GSK3β (H350L) (Homo sapiens (Human), UniProt P49841). Description: biochemical. The note with it: GSK3β Ki (nM).
Protocol: (§1) The assay was initiated with the addition of ATP, following 15 minutes pre-incubation of enzyme and inhibitor at room temperature in the reaction mixture. The reaction was stopped after 30 minutes at room temperature by the addition of 50 μL of 80 mM EDTA.
For assay [3], the target named is T1, GSK3β (H350L). The note with it: read-out: GSK3β Ki.
Protocol: as §1

Each structure is given as a SMILES string. Like-named read-outs stand apart in the source and are kept apart here.

T1 sequence (P49841 whole entry, stated change not applied): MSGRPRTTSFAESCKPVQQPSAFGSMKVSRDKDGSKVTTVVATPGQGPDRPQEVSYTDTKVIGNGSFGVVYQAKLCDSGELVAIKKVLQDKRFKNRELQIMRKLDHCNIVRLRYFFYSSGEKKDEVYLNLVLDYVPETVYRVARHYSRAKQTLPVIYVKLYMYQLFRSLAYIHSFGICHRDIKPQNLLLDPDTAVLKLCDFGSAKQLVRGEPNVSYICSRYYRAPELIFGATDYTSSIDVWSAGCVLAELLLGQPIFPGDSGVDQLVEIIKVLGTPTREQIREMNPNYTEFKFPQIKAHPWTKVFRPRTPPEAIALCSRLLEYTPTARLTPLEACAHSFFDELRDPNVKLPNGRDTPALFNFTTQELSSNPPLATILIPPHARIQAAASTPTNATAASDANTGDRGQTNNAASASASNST

Consider `COCc1cc(C(=O)Nc2cc([C@H]3CC[C@@H](OC(=O)NC(C)CC(F)(F)F)C3)[nH]n2)n(C)n1` (single isomer, unassigned) [Example 9], for which the figures for the inhibition constant Ki (in assay [1]; at GSK3β (H350L) [2]) were 1.14 nM and more than 95.3 nM, respectively.

With `COCc1cc(C(=O)Nc2cc([C@H]3CC[C@@H](OC(=O)NC(C)CC(F)(F)F)C3)[nH]n2)n(C)n1` (single isomer, unassigned) [Example 10], the Ki (commonly the equilibrium dissociation constant of an inhibitor or competing ligand from its target) in assay [1] came out at 0.25 nM; on GSK3β (H350L) [2], 101 nM.

For the molecule `CCCNC(=O)O[C@H]1CC[C@@H](c2cc(NC(=O)C3COc4ccccc43)n[nH]2)C1` (single isomer, unassigned) [Example 24], the inhibition constant (Ki) in assay [1] turned out to be 0.26 nM; at GSK3β (H350L) [2], 20.6 nM.

With `CCCNC(=O)O[C@H]1CC[C@@H](c2cc(NC(=O)C3COc4ccccc43)n[nH]2)C1` (single isomer, unassigned) [Example 25], the values for the inhibition constant Ki (in assay [1]; on GSK3β (H350L) [2]) were 2.7 nM and 135 nM, respectively.

For `CC(C)NC(=O)O[C@@H]1CC[C@H](c2cc(NC(=O)C3COc4ccccc43)n[nH]2)C1` (single isomer, unassigned) [Example 56], the inhibition constant (Ki) was determined as 0.25 nM in assay [1] and 42.8 nM on GSK3β (H350L) [2].

With `CC(CC(F)(F)F)NC(=O)O[C@@H]1CC[C@H](c2cc(NC(=O)Cc3ccon3)n[nH]2)C1` (single isomer, unassigned) [Example 64], the inhibition constant Ki stood at 0.14 nM in assay [1] and 18.7 nM on GSK3β (H350L) [2].

With `CC(CC(F)(F)F)NC(=O)O[C@@H]1CC[C@H](c2cc(NC(=O)Cc3ccn(C)n3)n[nH]2)C1` (single isomer, unassigned) [Example 66], the inhibitory constant (Ki) came out at 0.17 nM in assay [1] and 17.9 nM at GSK3β (H350L) [2].

In the case of `COc1cnc(CC(=O)Nc2cc([C@H]3CC[C@@H](OC(=O)NC(C)CC(F)(F)F)C3)[nH]n2)cn1` (single isomer, unassigned) [Example 68], the Ki is 0.36 nM in assay [1] and 16.3 nM at GSK3β (H350L) [2].

On to `Cc1ccc(C(=O)Nc2cc([C@H]3CC[C@@H](OC(=O)NC(C)CC(F)(F)F)C3)[nH]n2)cn1` (single isomer, unassigned) [Example 70], for which the Ki in assay [1] came out at 0.35 nM; on GSK3β (H350L) [2], 31.3 nM.

In the case of `Cc1cc(CC(=O)Nc2cc([C@H]3CC[C@@H](OC(=O)NC(C)CC(F)(F)F)C3)[nH]n2)on1` (single isomer, unassigned) [Example 71], the Ki in assay [1] stood at 1.01 nM; at GSK3β (H350L) [2] it was 33.8 nM.

In the case of `Cc1cc(CC(=O)Nc2cc([C@H]3CC[C@@H](OC(=O)NC(C)CC(F)(F)F)C3)[nH]n2)on1` (single isomer, unassigned) [Example 72], the Ki in assay [1] worked out at 0.15 nM; on GSK3β (H350L) [2], 12.8 nM.

`Cc1cnc(CC(=O)Nc2cc([C@H]3CC[C@@H](OC(=O)NC(C)CC(F)(F)F)C3)[nH]n2)cn1` (single isomer, unassigned) [Example 74]: the Ki in assay [1] was determined as 0.3 nM; on GSK3β (H350L) [2], 13.2 nM.

In the case of `Cc1ccc(CC(=O)Nc2cc([C@H]3CC[C@@H](OC(=O)NC(C)CC(F)(F)F)C3)[nH]n2)cn1` (single isomer, unassigned) [Example 75], the inhibition constant (Ki) in assay [1] turned out to be 0.26 nM; on GSK3β (H350L) [2], 9.59 nM.

On to `Cc1ccc(CC(=O)Nc2cc([C@H]3CC[C@@H](OC(=O)NC(C)CC(F)(F)F)C3)[nH]n2)cn1` (single isomer, unassigned) [Example 76], for which the Ki was found to be 0.1 nM in assay [1] and 4.96 nM at GSK3β (H350L) [2].

Turning to `COc1cc(CC(=O)Nc2cc([C@H]3CC[C@@H](OC(=O)NC(C)CC(F)(F)F)C3)[nH]n2)ccn1` (single isomer, unassigned) [Example 77], the Ki was 0.39 nM in assay [1] and 19.7 nM on GSK3β (H350L) [2].

For the molecule `COc1cc(CC(=O)Nc2cc([C@H]3CC[C@@H](OC(=O)NC(C)CC(F)(F)F)C3)[nH]n2)ccn1` (single isomer, unassigned) [Example 78], the inhibition constant (Ki) in assay [1] is 0.15 nM; at GSK3β (H350L) [2] it was 8.9 nM.

As to `COc1ccc(CC(=O)Nc2cc([C@H]3CC[C@@H](OC(=O)N4C[C@@](C)(O)[C@@H]4C)C3)[nH]n2)cn1` [Example 627, (1R,3S)-3-(3-{[(6-methoxypyridin-3-yl)acetyl]amino}-1H-pyrazol-5-yl)cyclopentyl (2S,3R)-3-hydroxy-2,3-dimethylazetidine-1-carboxylate], the inhibition constant (Ki) stood at 0.51 nM in assay [1] and 2.76 nM at GSK3β (H350L) [3].

As to `C[C@H]1CCCN1C(=O)O[C@@H]1CC[C@H](c2cc(NC(=O)Cc3ccon3)n[nH]2)C1` [Example 628, (1R,3S)-3-{3-[(1,2-oxazol-3-ylacetyl)amino]-1H-pyrazol-5-yl}cyclopentyl (2S)-2-methylpyrrolidine-1-carboxylate], the figures for the Ki (in assay [1]; at GSK3β (H350L) [3]) were 0.92 nM and 20.8 nM, respectively.

For the molecule `C[C@H]1CCCN1C(=O)O[C@@H]1CC[C@H](c2cc(NC(=O)Cc3cnco3)n[nH]2)C1` [Example 629, (1R,3S)-3-{3-[(1,3-oxazol-5-ylacetyl)amino]-1H-pyrazol-5-yl}cyclopentyl (2S)-2-methylpyrrolidine-1-carboxylate], the values for the Ki (in assay [1]; on GSK3β (H350L) [3]) were 0.4 nM and 10.6 nM, respectively.

With `Cc1cc(CC(=O)Nc2cc([C@H]3CC[C@@H](OC(=O)N4CCC[C@@H]4C)C3)[nH]n2)on1` [Example 632, (1R,3S)-3-(3-{[(3-methyl-1,2-oxazol-5-yl)acetyl]amino}-1H-pyrazol-5-yl)cyclopentyl (2S)-2-methylpyrrolidine-1-carboxylate], the inhibition constant (Ki) is 0.36 nM in assay [1] and 12.7 nM on GSK3β (H350L) [3].

As to `Cc1cc(CC(=O)Nc2cc([C@H]3CC[C@@H](OC(=O)N4CCC[C@@H]4C)C3)[nH]n2)no1` [Example 634, (1R,3S)-3-(3-{[(5-methyl-1,2-oxazol-3-yl)acetyl]amino}-1H-pyrazol-5-yl)cyclopentyl (2S)-2-methylpyrrolidine-1-carboxylate], the inhibition constant (Ki) in assay [1] amounted to 0.99 nM; on GSK3β (H350L) [3] it was 14.4 nM.

As to `Cc1cnc(CC(=O)Nc2cc([C@H]3CC[C@@H](OC(=O)N4CCC[C@@H]4C)C3)[nH]n2)o1` [Example 635, (1R,3S)-3-(3-{[(5-methyl-1,3-oxazol-2-yl)acetyl]amino}-1H-pyrazol-5-yl)cyclopentyl (2S)-2-methylpyrrolidine-1-carboxylate], the Ki was found to be 0.53 nM in assay [1] and 16.3 nM on GSK3β (H350L) [3].

Consider `Cc1cc(CC(=O)Nc2cc([C@H]3CC[C@@H](OC(=O)N4[C@@H](C)CC[C@@H]4C)C3)[nH]n2)on1` [Example 638, (1R,3S)-3-(3-{[(3-methyl-1,2-oxazol-5-yl)acetyl]amino}-1H-pyrazol-5-yl)cyclopentyl (2S,5S)-2,5-dimethylpyrrolidine-1-carboxylate], for which the figures for the Ki (in assay [1]; at GSK3β (H350L) [3]) were 0.28 nM and 14.9 nM, respectively.

In the case of `Cn1ccc(CC(=O)Nc2cc([C@H]3CC[C@@H](OC(=O)N4CCCC4(C)C)C3)[nH]n2)n1` [Example 639, (1R,35)-3-(3-{[(1-methyl-1H-pyrazol-3-yl)acetyl]amino}-1H-pyrazol-5-yl)cyclopentyl 2,2-dimethylpyrrolidine-1-carboxylate], the inhibition constant (Ki) came out at 0.47 nM in assay [1] and 6.34 nM at GSK3β (H350L) [3].

As to `Cc1cc(CC(=O)Nc2cc([C@H]3CC[C@@H](OC(=O)N4CCCC[C@H]4C)C3)[nH]n2)on1` [Example 641, (1R,3S)-3-(3-{[(3-methyl-1,2-oxazol-5-yl)acetyl]amino}-1H-pyrazol-5-yl)cyclopentyl (2R)-2-methylpiperidine-1-carboxylate], the inhibition constant (Ki) in assay [1] amounted to 0.59 nM; on GSK3β (H350L) [3] it was 14.4 nM.

With `Cc1cc(CC(=O)Nc2cc([C@H]3CC[C@@H](OC(=O)N4CCOC[C@@H]4C)C3)[nH]n2)on1` [Example 642, (1R,3S)-3-(3-{[(3-methyl-1,2-oxazol-5-yl)acetyl]amino}-1H-pyrazol-5-yl)cyclopentyl (3S)-3-methylmorpholine-4-carboxylate], the inhibition constant (Ki) is 1.37 nM in assay [1] and 10.3 nM on GSK3β (H350L) [3].

Regarding `C[C@H]1COCCN1C(=O)O[C@@H]1CC[C@H](c2cc(NC(=O)Cc3cc(F)cc(F)c3)n[nH]2)C1` [Example 644, (1R,3S)-3-(3-{[(3,5-difluorophenyl)acetyl]amino}-1H-pyrazol-5-yl)cyclopentyl (3S)-3-methylmorpholine-4-carboxylate], the results for the Ki (in assay [1]; on GSK3β (H350L) [3]) were 0.33 nM and 8.71 nM, respectively.

As to `C[C@@H]1COCCN1C(=O)O[C@@H]1CC[C@H](c2cc(NC(=O)Cc3cc(F)cc(F)c3)n[nH]2)C1` [Example 645, (1R,3S)-3-(3-{[(3,5-difluorophenyl)acetyl]amino}-1H-pyrazol-5-yl)cyclopentyl (3R)-3-methylmorpholine-4-carboxylate], the Ki came out at 0.37 nM in assay [1] and 7.23 nM at GSK3β (H350L) [3].

On to `COc1ncc(CC(=O)Nc2cc([C@H]3CC[C@@H](OC(=O)N4CCOC[C@@H]4C)C3)[nH]n2)s1` [Example 646, (1R,3S)-3-(3-{[(2-methoxy-1,3-thiazol-5-yl)acetyl]amino}-1H-pyrazol-5-yl)cyclopentyl (3S)-3-methylmorpholine-4-carboxylate], for which the inhibition constant Ki in assay [1] was found to be 1.03 nM; on GSK3β (H350L) [3], 5.18 nM.

Regarding `COc1ncc(CC(=O)Nc2cc([C@H]3CC[C@@H](OC(=O)N4CCOC[C@H]4C)C3)[nH]n2)s1` [Example 647, (1R,3S)-3-(3-{[(2-methoxy-1,3-thiazol-5-yl)acetyl]amino}-1H-pyrazol-5-yl)cyclopentyl (3R)-3-methylmorpholine-4-carboxylate], the Ki in assay [1] came out at 1.08 nM; at GSK3β (H350L) [3], 3.39 nM.

Regarding `Cc1cc(CC(=O)Nc2cc([C@H]3CC[C@@H](OC(=O)N4[C@@H](C)COC[C@@H]4C)C3)[nH]n2)on1` [Example 648, (1R,3S)-3-(3-{[(3-methyl-1,2-oxazol-5-yl)acetyl]amino}-1H-pyrazol-5-yl)cyclopentyl (3S,5S)-3,5-dimethylmorpholine-4-carboxylate], the Ki in assay [1] was found to be 0.47 nM; at GSK3β (H350L) [3] it was 12.2 nM.

Consider `Cc1cc(CC(=O)Nc2cc([C@H]3CC[C@@H](OC(=O)N4CCOCC4(C)C)C3)[nH]n2)on1` [Example 649, (1R,3S)-3-(3-{[(3-methyl-1,2-oxazol-5-yl)acetyl]amino}-1H-pyrazol-5-yl)cyclopentyl 3,3-dimethylmorpholine-4-carboxylate], for which the inhibition constant (Ki) in assay [1] is 0.31 nM; on GSK3β (H350L) [3], 9.2 nM.
